Patent publication US20040204375A1, “Gene delivery compounds” (priority 2001, published 2004)

Legend:
HT29 cells [1] = test: Screening assay for gene transfer activators: adenovirus luciferase or β-galactosidase constructs on confluent cells with test compound; assay type: cell-based, human; parameters: key to Activity (gene transfer activator): +++ = more active; ++ = active; + = less active; details: for Activity (gene transfer activator): gene transfer in presence vs absence of test compound
Procedure: A gene transfer activating compound is identified by an assay which determines whether gene transfer occurs to a greater extent in the presence of a test compound than in the absence. For example, confluent cells plated in multi-well cell culture units are exposed to adenovirus luciferase or β-galactosidase constructs in the presence of the test compound. The test compound is administered to cells before, after or concurrently with the adenovirus. The extent of gene transfer is measured by visual inspection or quantitative measurement of luciferase or β-galactosidase in the presence and absence of the test compound.
HT29 cells are grown in 96-well plates. The cells are seeded at near confluency, about 300,000 cells per well, and infected with adenovirus 3-4 days later. […] For screening purposes, cells are grown on plastic. […] The activity of candidate compounds is also confirmed using polarized monolayers grown on filters. Once confluent, HT29 cells are very difficult to transduce with adenoviral constructs. Fewer than 1 in 100 cells express adenoviral transgenes at multiplicity of infection (MOI) of approximately 50. A replication deficient adenovirus encoding firefly luciferase or the E. coli LacZ gene (β-galactosidase) at an MOI of 50 for each well of cells in low serum medium is applied for 4 hours at 37° C. Test drugs are incubated along with the virus. Forty-eight hours later, the cells are assayed for β-galactosidase or luciferase by standard techniques. For example, β-galactosidase is assayed by incubating cells with a β-galactosidase substrate such as 1 mg/ml X-gal 5-bromo-4-chloro-3-indolyl B-D-galactopyranoside (X-gal), overnight at 37° C. When X-gal is cleaved by β-galactosidase, a bright blue precipitate is formed. The intensity of the blue color can be estimated visually or measured by optical densitometry to evaluate the efficiency of adenoviral transduction. Luciferase is assayed using a commercially available kit (Promega) which allows quantitative measurements of adenoviral gene transfer.

HT29 cells [2] = test: Adenoviral LacZ gene transfer to confluent HT29 cells, β-galactosidase assay (Example 2); assay type: cell-based, human; details: for activation of adenovirus gene transfer: HT29 cells, LacZ adenovirus MOI 0.1-10, 4 hours, assay 48 hours later
Procedure: HT29 or HeLa cells are grown in 96-well plates. The HT29 cells are seeded at near confluency, about 300,000 cells per well, and infected with adenovirus 3-4 days later. Confluent HeLa cells are used as a positive control. […] A replication deficient adenovirus encoding the E. coli LacZ gene is applied at an MOI of 0.1-10 to wells of cells in low serum medium for 4 hours at 37° C. Gene transfer activating compounds are incubated along with the virus at concentrations of 10 micromolar or 100 micromolar. A set of cells is incubated with virus but no gene transfer activating compound. Forty-eight hours later, the cells are assayed for β-galactosidase by standard techniques. […] FIGS. 2 and 6 illustrate the results using compound 6975 and 8496 respectively.

[3] = test system: IB3 cystic fibrosis airway epithelial cells; test: Adenoviral luciferase gene transfer to IB3 cells (Example 3); assay type: cell-based; details: 100 micromolar compound, MOI 5 or 10, FIG. 3
Procedure: IB3 cystic fibrosis airway epithelial cells are grown in 96-well plates. The cells are seeded at near confluency, about 300,000 cells per well, and infected with adenovirus 3-4 days later. A replication deficient adenovirus encoding luciferase is applied at an MOI of 5 or 10 to wells of cells in low serum medium for 4 hours at 37° C. Compound 6975 is incubated along with the virus at a concentration of 100 micromolar. A set of cells is incubated with virus but no gene transfer activating compound. Forty-eight hours later, the cells are assayed for luciferase by standard techniques. FIG. 3 presents the results of this assay in a graph.

HT29 cells [4] = test: Adenoviral LacZ gene transfer to HT29 cells, comparison with EGTA (Example 4); assay type: cell-based, human; details: 100 micromolar compound vs 5 millimolar EGTA, MOI 10
Procedure: HT29 cells are grown in 96-well plates. The cells are seeded at near confluency, about 300,000 cells per well, and infected with adenovirus 3-4 days later. […] A replication deficient adenovirus encoding LacZ is applied at an MOI of 10 to wells of cells in low serum medium for 4 hours at 37° C. Compound 6975 is incubated along with the virus at a concentration of 100 micromolar. A second set of cells is incubated with virus but no gene transfer activating compound and a third set of cells is incubated with virus and 5 millimolar EGTA. Forty-eight hours later, the cells are assayed for […] by standard techniques.

[5] = test system: PC-3 human prostate cell tumors; test: In vivo adenoviral gene transfer to prostate tumors, PNP activity (Example 5); parameters: species or system mice; details: 1 mM compound, 2-3×10^9 adenoviral particles per tumor, FIG. 5
Procedure: Prostate tumors are established in suitable hosts and PNP activity assayed in the presence or absence of adenovirus. Approximately 2-3×10^9 adenoviral particles are administered per tumor in the presence of 1 mM of compound 6975 or in the absence of the compound. Transgene activity is also assayed in livers. Further details of the method are described in (3).

[H]/N=C(\N)N/N=C(\C)c1ccccn1 [Compound 6883]
Activity (gene transfer activator) (HT29 cells [1]): +

[H]/N=C(/N/N=C(\C)c1ccccn1)Nc1ccccc1 [Compound 6898]
Activity (gene transfer activator) (HT29 cells [1]): +

[H]/N=C(/N/N=C(\C)c1ccccn1)Nc1ccccc1 [Compound 6975]
activating adenovirus-mediated gene transfer and expression in cells (HT29 cells [1]; FIG. 1): effective in activating adenovirus-mediated gene transfer and expression in cells
Activity (gene transfer activator) (HT29 cells [1]): +++
activation of adenovirus gene transfer (HT29 cells [2]; 10 micromolar compound): show activation of adenovirus gene transfer
activation of adenovirus gene transfer (HT29 cells [2]; 100 micromolar compound): show activation of adenovirus gene transfer
adenoviral gene transfer of luciferase to IB3 cells [3]: activates adenoviral gene transfer of luciferase
adenovirus gene transfer efficiency compared with EGTA (HT29 cells [4]): activates adenovirus gene transfer more efficiently than EGTA
in vivo adenoviral gene transfer to tumors [5]: activates in vivo adenoviral gene transfer to PC-3 human prostate cell tumors in mice

C/C(=N/N=C(/N)NO)c1ccccn1 [Compound 7036]
Activity (gene transfer activator) (HT29 cells [1]): ++

C/C(=N/NC(=N)NCc1ccccn1)c1ccccn1 [Compound 7064]
Activity (gene transfer activator) (HT29 cells [1]): +

[H]/N=c1/ncn([C@@H]2O[C@H](CO)[C@@H](O)[C@H]2O)c2[nH]cnc12 [Compound 8496]
Activity (gene transfer activator) (HT29 cells [1]): +++
adenoviral gene transfer of LacZ to HT29 cells (HT29 cells [2]; FIG. 6): activates adenoviral gene transfer of LacZ to HT29 cells
activation of adenovirus gene transfer (HT29 cells [2]; 10 micromolar compound): show activation of adenovirus gene transfer
activation of adenovirus gene transfer (HT29 cells [2]; 100 micromolar compound): show activation of adenovirus gene transfer
